{"source": "patent US4560689A", "about": "“Heterocyclic-fused pyrazolo-[3,4-d]pyridin-3-ones as benzodiazepine receptor modulators” (Ciba-Geigy Corporation, priority 1984, dated 1985)", "key": {"[1]": {"tested_on": "benzodiazepine receptor", "test": "in vivo benzodiazepine receptor binding (3H-flunitrazepam)", "conditions": "30 mg/kg p.o. in the mouse", "procedure": "In vivo benzodiazepine receptor binding is determined essentially as described in Eur. J. Pharmacol. 48, 213 (1978) and Nature 275, 551 (1978).\nTest compounds in a corn starch vehicle are administered orally or intraperitioneally to mice or rats. Thirty minutes later, 3H-flunitrazepam(2 nmoles/Kg in saline) is injected into the tail vein, and the animals are sacrificed 20 minutes after injection of the flunitrazepam. The brains are then assayed by determining radioactivity in a liquid scintillation counter for binding of the radioligand to the receptors. A decrease in the binding of 3H-flunitrazepam in the drug-treated animals (as compared with the binding observed in animals treated with vehicle alone) is indicative of benzodiazepine receptor binding by the test compound."}, "[2]": {"target": "benzodiazepine receptor", "test": "in vitro benzodiazepine receptor binding assay (tritiated diazepam displacement)", "conditions": "inhibition of specific binding of 2 nM tritiated diazepam, membranes from rat fore-brain, 0°-5°, 30 minutes, pH 7.5", "procedure": "The benzodiazepine receptor binding properties indicative of the nervous system regulatory activity of said new compounds are determined in the receptor binding assay in vitro, e.g. as described in Nature 266, 732 (1977) or Proc. Nat. Acad. Sci. USA 74, 3805 (1977). Diazepam binds specifically and with high affinity to crude synaptosomal membrane preparations from rat fore-brain. This binding is inhibited by other anxiolytic compounds. When tritiated diazepem is used, the interaction of other drugs with said receptor can be readily assessed thus: membranes from rat fore-brain are incubated at 0°-5° for 30 minutes with 2 nM tritiated diazepam and various concentrations of the test substance in a buffer medium maintained at pH 7.5. Solutions of the various concentrations of test substances are prepared by dilution of a 4.2 mM stock solution in dimethylacetamide-ethanol (1:10) with 50 mM pH7.5. Tris-HCl buffer. The membranes, containing the receptors with various amounts of tritiated diazepam, are filtered onto glass fiber filters, which are then analyzed in a liquid scintillation counter. The concentration of the compounds of this invention, required to inhibit the specific binding of 2 nM of tritiated diazepam by 50%, i.e. the IC50, is determined graphically."}}, "note": "Where a name gives a salt, the structure may show the parent alone."}
{"smiles": "O=c1c2c[nH]c3ccncc3c-2nn1-c1ccccc1", "note": "[Example 1, 2-phenyl-pyrazolo[4,3-c][1,6]naphthyridin-3(5H)-one]", "values": [{"measurement": "inhibits flunitrazepam binding in vivo", "setting": "[1]", "result": "about 75%"}]}
{"smiles": "O=c1c2c[nH]c3ccncc3c-2nn1-c1ccc(Cl)cc1", "note": "[Example 2, 2-p-chlorophenyl-pyrazolo[4,3-c][1,6]naphthyridin-3(5H)-one]", "values": [{"measurement": "IC50", "setting": "[2]", "result": "~0.2", "unit": "nM"}]}
{"smiles": "O=c1c2c[nH]c3ccncc3c-2nn1-c1cccnc1", "note": "[Example 5a, 2-(3-pyridyl)pyrazolo[4,3-c][1,6]naphthyridin-3-(5H)-one hydrochloride]", "values": [{"measurement": "IC50", "setting": "[2]", "result": "~3", "unit": "nM"}]}
{"smiles": "O=c1c2c[nH]c3sccc3c-2nn1-c1ccc(Cl)cc1", "note": "[Example 9, 2-(4-chlorophenyl)-thieno[2,3-b]pyrazolo[3,4-d]pyridin-3(5H)-one hydrate]", "values": [{"measurement": "IC50", "setting": "[2]", "result": "~9", "unit": "nM"}]}
